Measured values from paper PMC5464344, “Analgesic and anti‐inflammatory properties of novel, selective, and potent EP4 receptor antagonists” (Pharmacology Research & Perspectives, 2017).

What was measured:
Human EP4 = Human EP4 (Homo sapiens, UniProt P35408); test: [3H]-PGE2 receptor binding assay, EP4 membranes; parameters: expressed in transfected cells; membrane preparation; details: HEK293 membranes, geometric mean ± SEM, read-out: hEP1-4 receptor binding EP4 Ki
Method: (§1) Receptor binding assays were done using membrane preparations of HEK 293 cells transfected with various prostanoid receptors using previously published procedure (Nakao et al. 2007). EP1 and EP4 membranes were prepared from recombinant HEK293 cells stably expressing human EPl receptor (GenBank Accession # AY275470, Clone ID PER0100000, UMR cDNA Resource Center, Rolla, MO) or human EP4 receptor. EP2 and EP3 membranes were prepared from HEK293 cells transiently transfected with human EP2 receptor (GenBank Accession # AY275471, Clone ID PER0200000, UMR cDNA Resource Center, Rolla, MO) or human EP3 receptor (GenBank Accession # AY429108, Clone ID PER3VI0000, UMR cDNA Resource Center, Rolla, MO) plasmids. Frozen cell pellets were homogenized in homogenization buffer (10 mmol/L Tris‐HCl, pH7.4, 250 mmol/L sucrose, 1 mmol/L EDTA, 0.3 mmol/L indomethacin and protease inhibitor cocktail with EDTA (Roche Molecular Biochemicals, catalog # 1691498)) using a Teflon/glass homogenizer. After a low speed centrifugation (200g for 15 min at 4°C) the supernatant was subjected to high speed centrifugation (30,000g for 60 min at 4°C). Membrane protein preparation was aliquoted and quick frozen on dry ice prior to storage at −80°C. […] Compounds were tested in a 96‐well format using a three‐fold dilution series to generate 10‐point curves. […] The binding reaction was performed in 200 μL MES buffer (10 mmol/L MES, pH 6.0, 10 mmol/L MgCl2, and l mmol/L EDTA) using polystyrene 96‐well plates. […] The membranes were harvested by filtration (TomTek harvester), washed four times with cold buffer (10 mmol/L MES, pH 6.0, 10 mmol/L MgCl2), dried in a 60°C oven, and the radioactivity was quantified as counts per min (CPM) using a TopCount detector. […] Data were analyzed using a 4‐parameter nonlinear logistic equation. K i Conversion from IC50 Values (K i = […] where [L] is the ligand concentration). Results are expressed as the geometric mean ± standard deviation or geometric mean ± standard error as noted.

human EP3 receptor = target: T1, human EP3 receptor (Homo sapiens, UniProt P43115); test: [3H]-PGE2 receptor binding assay, EP3 membranes; details: HEK293 membranes, geometric mean ± SEM, read-out: hEP1-4 receptor binding EP3 Ki
T1 sequence (P43115 1-359 limits assumed): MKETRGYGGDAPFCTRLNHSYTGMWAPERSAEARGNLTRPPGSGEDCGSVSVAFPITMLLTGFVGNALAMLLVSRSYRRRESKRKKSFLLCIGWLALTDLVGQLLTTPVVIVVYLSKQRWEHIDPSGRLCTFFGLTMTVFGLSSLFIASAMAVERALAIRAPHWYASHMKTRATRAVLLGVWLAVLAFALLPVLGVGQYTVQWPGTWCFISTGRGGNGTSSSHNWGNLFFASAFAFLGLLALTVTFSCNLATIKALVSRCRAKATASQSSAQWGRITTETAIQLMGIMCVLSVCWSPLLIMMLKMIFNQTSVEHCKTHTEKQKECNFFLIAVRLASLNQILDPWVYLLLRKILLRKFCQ
Method: as §1

human EP1 receptor = target: T2, human EP1 receptor (Homo sapiens, UniProt P34995); test: [3H]-PGE2 receptor binding assay, EP1 membranes; details: HEK293 membranes; [3H]-PGE2; geometric mean ± SEM; read-out: hEP1-4 receptor binding EP1 Ki
T2 construct: membrane preparation
T2 sequence (P34995 1-402): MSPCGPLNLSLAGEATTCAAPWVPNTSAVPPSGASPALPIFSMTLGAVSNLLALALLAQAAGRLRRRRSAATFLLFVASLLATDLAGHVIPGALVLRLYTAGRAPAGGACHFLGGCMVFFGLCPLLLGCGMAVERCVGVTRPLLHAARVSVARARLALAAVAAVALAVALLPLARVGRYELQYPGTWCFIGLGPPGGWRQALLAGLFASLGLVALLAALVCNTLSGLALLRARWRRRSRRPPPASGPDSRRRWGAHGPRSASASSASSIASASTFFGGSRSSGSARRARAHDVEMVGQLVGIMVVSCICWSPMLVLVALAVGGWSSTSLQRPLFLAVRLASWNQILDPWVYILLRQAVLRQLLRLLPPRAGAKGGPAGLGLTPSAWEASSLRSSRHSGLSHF
Method: as §1

[1] = target: T3, TP (TXA2/PGH2) (h); agonist effect (Homo sapiens, UniProt P21731); test: Off-target activity (CEREP), TP agonist effect; format: biochemical; details: 10 μmol/L; obtained at CEREP (Blanco et al. 2016c)
T3 construct: CEREP (contract laboratory that ran the assay)
T3 sequence (P21731 1-343): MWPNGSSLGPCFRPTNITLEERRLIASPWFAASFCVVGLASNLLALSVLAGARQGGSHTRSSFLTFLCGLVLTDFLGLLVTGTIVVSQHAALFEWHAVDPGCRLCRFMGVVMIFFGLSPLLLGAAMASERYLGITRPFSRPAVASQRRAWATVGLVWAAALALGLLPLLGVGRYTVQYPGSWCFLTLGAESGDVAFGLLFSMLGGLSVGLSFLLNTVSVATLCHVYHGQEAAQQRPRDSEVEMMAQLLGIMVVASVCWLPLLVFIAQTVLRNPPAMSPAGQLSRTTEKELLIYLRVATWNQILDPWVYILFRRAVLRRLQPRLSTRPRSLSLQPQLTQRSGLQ
Text: (§2) The off‐target activity related to prostaglandin pathway (Table 2) were obtained at CEREP (Blanco et al. 2016c).

[2] = target: T4, TP (TXA2/PGH2) (h); antagonist effect (Homo sapiens, UniProt P21731); test: Off-target activity (CEREP), TP antagonist effect; format: biochemical; details: 10 μmol/L; obtained at CEREP (Blanco et al. 2016c)
T4 construct: CEREP (contract laboratory that ran the assay)
T4 sequence (P21731 1-343): T3 sequence (P21731 1-343)
Text: as §2

Chain of Human EP4 (P35408 whole entry): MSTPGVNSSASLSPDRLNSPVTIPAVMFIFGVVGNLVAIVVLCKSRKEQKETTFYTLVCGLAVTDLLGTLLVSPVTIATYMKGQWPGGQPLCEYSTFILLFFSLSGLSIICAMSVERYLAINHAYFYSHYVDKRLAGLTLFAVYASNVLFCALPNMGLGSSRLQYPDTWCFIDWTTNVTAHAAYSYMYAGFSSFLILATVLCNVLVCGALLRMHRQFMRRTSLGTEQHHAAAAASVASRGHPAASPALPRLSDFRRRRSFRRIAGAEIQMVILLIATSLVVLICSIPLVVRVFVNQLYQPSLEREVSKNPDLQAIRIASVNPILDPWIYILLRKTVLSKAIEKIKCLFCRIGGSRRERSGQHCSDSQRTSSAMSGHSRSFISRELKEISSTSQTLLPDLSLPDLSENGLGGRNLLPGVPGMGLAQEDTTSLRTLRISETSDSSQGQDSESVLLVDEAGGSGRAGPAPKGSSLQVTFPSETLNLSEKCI

Ki (Human EP4) [µM]	Ki (human EP3 receptor) [µM]	Ki (human EP1 receptor) [µM]	SMILES	% Inh TP (TXA2/PGH2) (h); agonist effect [1] [%]	% Inh TP (TXA2/PGH2) (h); antagonist effect [2] [%]
0.0126 ± 0.00736	> 15.5	> 26.7	C[C@H](NC(=O)c1cc(Cl)ccc1Oc1ccc(F)cc1)c1ccc(C(=O)O)cc1 [CJ‐042,794, reference compound]		
0.058 ± 0.012			Cc1ccc(N2CCC(O)CC2)nc1C(=O)Nc1c(C)cc(C(=O)O)cc1C [Compound 1]	−4.00	−12.00
0.00207 ± 0.00131	> 14	> 17.5	Cc1ccc(-c2cccc(CO)c2)nc1C(=O)Nc1c(C)ccc(C(=O)O)c1C [Compound 3]		

SMILES	Ki (Human EP4) [µM]	Ki (human EP3 receptor) [µM]	Ki (human EP1 receptor) [µM]	% Inh TP (TXA2/PGH2) (h); agonist effect [1] [%]	% Inh TP (TXA2/PGH2) (h); antagonist effect [2] [%]
C[C@H](NC(=O)[C@H]1CCCCN1CCOc1ccccc1)c1ccc(C(=O)O)cc1 [Compound 2]		> 14		−2.00	−12.00
